Peptide text beside a SMILES is read from it.
Experiments:
Type in all cases: physicochemical
[1] = Solubility test in water (visual check); details: for solubility in water (in words): visual check
Procedure: To a three necked 1 L flask equipped with stirrer and thermometer, 60.0 g (207.4 mmol) of (R)-2-[2-amino-3-(indol-3-yl)propionylamino]-2-methylpropionic acid, which is as synthesized by methods as described herein, e.g., at Examples 6 and 11, or by the method as previously described in U.S. Patent Application Publication No. 2006/0234947, was added to a mixture of 167.0 mL of water and 21.0 mL of concentrated hydrochloric acid, resulting in the formation of a yellowish brown solution. The pH of the solution was set to 5.6 with 53.0 mL of a 20% NaOH solution at 0-5° C. About 30 minutes later, the crystallization started at 0-5° C. The suspension was stirred overnight at 0-5° C. The suspension was filtered on a pre-chilled funnel. As an in-process control, the solubility of a part of the filter cake in water was checked. […] Form II of (R)-2-[2-Amino-3-(indol-3-yl)propionylamino]-2-methylpropionic acid was isolated and dried at 0-5° C. over P2O5.
To a three necked 6 L flask equipped with overhead stirrer, thermometer, and pH meter, 1189.0 g of wet […] from Step 1 was dissolved in a mixture of 1715.0 mL of water and 250.0 mL of concentrated HCl. The mixture was stirred at 5-10° C. and the pH of the solution was adjusted to 5.6 with 665.0 mL of a 20% NaOH solution maintaining the temperature at 5-10° C. After 30 minutes of stirring, the crystallization began. The resulting suspension was stirred at 0-5° C. overnight. The precipitate was collected by filtration. This collected Form II was suspended in 1.2 L of water and heated to 30-35° C. for two hours. At the beginning, the solid partly dissolved, then precipitated again. […] The suspension was cooled to room temperature (20-25° C.), filtered and washed with 400 mL and 800 mL of water, subsequently then dried at 60-65° C. to constant weight.

[2] = Transition of Form II to Form I / product stability as a function of temperature
Procedure: At a higher temperature (e.g., 40-50° C.) significant degradation of the product is observed. Further, the isolated yield (45%-50% instead of 60%) and the efficiency of the purification are slightly lower (98.9 area %) at −5° C. than at 0-5° C. […] During the filtration step, the thick suspension could be warmed up and partly dissolves Form II of the compound and decreases the yield.
The complete transition from GAL-101 Form II to GAL-101 Form I is detected at room temperature (20-25° C.) within 15 minutes. The transition can start at above 10° C. The transition can be followed by microscope, the large metastable crystals transform to small crystals within a few minutes at ambient temperature (FIGS. 6-14).

[3] = Microscopy study of the transition of Form II to Form I; details: 30-35° C., polarized light microscope
Procedure: Transition of wet Form II to Form I was observed through a MOTIC BA300 microscope (as shown in FIGS. 6-10) under polarized light. The transition from wet Form II to Form I proceeded rapidly. The large Form II crystals transformed to small crystals at 30-35° C. within 2 minutes. The crystals of Form II are large plates. The observed crystal form explains the observed thixotropic property of the suspension of Form II. Form I consists of uniform rounded crystals.

[4] = Transition of Form II to Form I followed by X-ray powder diffraction
Procedure: X-ray powder diffraction (XRPD) patterns were obtained in a Philips model PW 3710 based PW 1050 Bragg-Brentano parafocusing goniometer using CuKa radiation (l=0.15418 nm), graphite monochromator and proportional counter. The XRD scans were digitally recorded in the […] of 3-35deg with a step size of 0.04deg.
Form II was measured at 20-25° C. (long dashed line), then heated at 30-35 for 15 minutes (solid line), then another 60 minutes (dotted line) (FIG. 2). Form I was also measured (short dashed line). According to the measurements, Form II is highly crystalline and strongly oriented (it forms large plates).
The transition of Form II (dark grey line) to Form I (black line) was complete at 50-60° C. within 30 minutes (FIG. 3). The reference diffractogram of Form I is shown in grey.

solubility in water (in words) ([1]; listed as Form I) | water needed to dissolve (water solubility) ([1]; room temperature) | solubility in water (in words) [1] | solubility in water (in words) ([1]; listed as form II) | temperature above which the transition Form II to Form I can start [2] | speed of transformation to Form I (in words) ([2]; above 30° C.) | time to complete transition from Form II to Form I ([2]; room temperature (20-25° C.)) [min] | time for large Form II crystals to transform to small crystals (wet Form II to Form I) [3] [min] | time to complete transition of Form II to Form I (XRPD) ([4]; 50-60° C.) [min] | conversion of Form II to Form I in dry state (XRPD) ([4]; dry state, 30-35° C.) | Compound
almost insoluble in water |  |  |  |  |  |  |  |  |  | CC(C)(NC(=O)[C@H](N)Cc1c[nH]c2ccccc12)C(=O)O [GAL-101 Form I, (R)-2-[2-amino-3-(indol-3-yl)propionylamino]-2-methylpropionic acid] (HELM PEPTIDE1{[dW].[Aib]}$$$$V2.0)
 | about 4 volumes of water | high water solubility | Immediately dissolving | above 10 °C | very rapidly | ≤ 15 | ≤ 2 | ≤ 30 | converts gradually to Form I | CC(C)(NC(=O)[C@H](N)Cc1c[nH]c2ccccc12)C(=O)O [GAL-101 Form II, (R)-2-[2-amino-3-(indol-3-yl)propionylamino]-2-methylpropionic acid] (HELM PEPTIDE1{[dW].[Aib]}$$$$V2.0)
